Patent publication US20250034167A1, “HETEROCYCLIC COMPOUNDS AND METHODS OF USE” (AMGEN INC., priority 2021, published 2025)

Key:
[1] = target: His-tagged KRAS G12D protein (Homo sapiens, UniProt P01116, G12D); assay: biochemical
Method: The plate was incubated for 30 minutes at room temperature. Biotinylated KRPep-2d substrate (Amgen) was diluted to nM in Assay Buffer and 2 μL was added to all wells and incubated for 1 hour at room temperature. Detection Reagent (0.4 nM LANCE Eu-W1024 Anti-6×His (Perkin Elmer AD0401), 5 nM streptavidin-d2 (Cisbio 610SADLA)) was prepared in Assay Buffer, then 4 µL was added to the plate and incubated for 1 hour at room temperature.

[2] = test system: Phosphorylation of ERK1/2 in AsPC-1 cells; assay: Phospho-ERK1/2 MSD Assay; type: cell-based; conditions: Homo sapiens, ASPC1, 2 h, read-out: 2 h p-ERK (AsPC-1 cells), IC50, AsPC-1 cells, 2 h compound treatment
Method: Sixteen hours prior to compound treatment, AsPC-1 cells were seeded in 96-well cell culture plates at a density of 25,000 cells/well and incubated at 37° C., 5% CO2. A compound dose-response titration was diluted in growth media, added to appropriate wells of a cell culture plate, and then incubated at 37° C., 5% CO2 for 2 hours.

His-tagged KRAS G12D protein, sequence (P01116 1-188 isoform P01116-2 G12D): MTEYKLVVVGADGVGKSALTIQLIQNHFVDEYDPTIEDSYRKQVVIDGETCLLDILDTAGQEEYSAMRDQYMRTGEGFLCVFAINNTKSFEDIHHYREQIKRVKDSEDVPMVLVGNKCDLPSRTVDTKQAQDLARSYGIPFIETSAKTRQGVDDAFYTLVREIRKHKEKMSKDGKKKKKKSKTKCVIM

| Structure (SMILES) | IC50 [1] [nM] | IC50 [2] [nM] |
| --- | --- | --- |
| CCc1c(F)ccc2cc(O)cc(-c3ncc4c(N5C[C@H](O)C[C@@H](O)C5)nc(OC[C@@]56CCCN5C[C@H](F)C6)nc4c3F)c12 [Example 102, (3R,5R)-1-(7-(8-Ethyl-7-fluoro-3-hydroxynaphthalen-1-yl)-8-fluoro-2-(((2R,7aS)-2-fluorotetrahydro-1H-pyrrolizin-7a(5H)-yl)methoxy)pyrido[4,3-d]pyrimidin-4-yl)piperidine-3,5-diol] | 2 | 1900 |
| CCc1c(F)ccc2cc(O)cc(-c3ncc4c(N5CC6CCC(C6)C5)nc(OC[C@@]56CCCN5C[C@H](F)C6)nc4c3F)c12 [Example 105, 4-(4-(3-Azabicyclo[3.2.1]octan-3-yl)-8-fluoro-2-(((2R,7aS)-2-fluorotetrahydro-1H-pyrrolizin-7a(5H)-yl)methoxy)pyrido[4,3-d]pyrimidin-7-yl)-5-ethyl-6-fluoronaphthalen-2-ol] | 9 | 939 |
| CCc1c(F)ccc2cc(O)cc(-c3ncc4c(N5C[C@H](O)[C@@H](O)C5)nc(OC[C@@]56CCCN5C[C@H](F)C6)nc4c3F)c12 [Example 117, (3S,4S)-1-(7-(8-Ethyl-7-fluoro-3-hydroxynaphthalen-1-yl)-8-fluoro-2-(((2R,7aS)-2-fluorotetrahydro-1H-pyrrolizin-7a(5H)-yl)methoxy)pyrido[4,3-d]pyrimidin-4-yl)pyrrolidine-3,4-diol] | 9 | > 10000 |
| CCc1c(F)ccc2cc(O)cc(-c3ncc4c(N5CC(O)CC(F)(F)C5)nc(OC[C@@]56CCCN5C[C@H](F)C6)nc4c3F)c12 (stereo partly drawn) [Example 118, 1-(7-(8-Ethyl-7-fluoro-3-hydroxynaphthalen-1-yl)-8-fluoro-2-(((2R,7aS)-2-fluorotetrahydro-1H-pyrrolizin-7a(5H)-yl)methoxy)pyrido[4,3-d]pyrimidin-4-yl)-5,5-difluoropiperidin-3-ol] | 3 | 105 |
| CCc1c(F)ccc2cc(O)cc(-c3ncc4c(N5CCC(O)C(F)(F)CC5)nc(OC[C@@]56CCCN5C[C@H](F)C6)nc4c3F)c12 (stereo partly drawn) [Example 120, 1-(7-(8-Ethyl-7-fluoro-3-hydroxynaphthalen-1-yl)-8-fluoro-2-(((2R,7aS)-2-fluorotetrahydro-1H-pyrrolizin-7a(5H)-yl)methoxy)pyrido[4,3-d]pyrimidin-4-yl)-5,5-difluoroazepan-4-ol] | 4 | 222 |
| CCc1c(F)ccc2cc(O)cc(-c3ncc4c(N5CCC[C@@H](C(=O)OC)C5)nc(OC[C@@]56CCCN5C[C@H](F)C6)nc4c3F)c12 [Example 126, Methyl (R)-1-(7-(8-ethyl-7-fluoro-3-hydroxynaphthalen-1-yl)-8-fluoro-2-(((2R,7aS)-2-fluorotetrahydro-1H-pyrrolizin-7a(5H)-yl)methoxy)pyrido[4,3-d]pyrimidin-4-yl)piperidine-3-carboxylate] | 37 | 3340 |
| CCc1c(F)ccc2cc(O)cc(-c3ncc4c(N5CCCC[C@@H](O)C5)nc(OC[C@@]56CCCN5C[C@H](F)C6)nc4c3F)c12 [Example 129, (R)-1-(7-(8-Ethyl-7-fluoro-3-hydroxynaphthalen-1-yl)-8-fluoro-2-(((2R,7aS)-2-fluorotetrahydro-1H-pyrrolizin-7a(5H)-yl)methoxy)pyrido[4,3-d]pyrimidin-4-yl)azepan-3-ol] | 1 | 64 |
| CCc1c(F)ccc2cc(O)cc(-c3ncc4c(N5CCCC[C@@H](NC(=O)C(F)F)C5)nc(OC[C@@]56CCCN5C[C@H](F)C6)nc4c3F)c12 [Example 132, N-((R)-1-(7-(8-Ethyl-7-fluoro-3-hydroxynaphthalen-1-yl)-8-fluoro-2-(((2R,7aS)-2-fluorotetrahydro-1H-pyrrolizin-7a(5H)-yl)methoxy)pyrido[4,3-d]pyrimidin-4-yl)azepan-3-yl)-2,2-difluoroacetamide] | 1 | 119 |
